What all share (type): biochemical
The target in assay [1] is T1, TEC (Homo sapiens, UniProt P42680).
T1 sequence (P42680 1-631): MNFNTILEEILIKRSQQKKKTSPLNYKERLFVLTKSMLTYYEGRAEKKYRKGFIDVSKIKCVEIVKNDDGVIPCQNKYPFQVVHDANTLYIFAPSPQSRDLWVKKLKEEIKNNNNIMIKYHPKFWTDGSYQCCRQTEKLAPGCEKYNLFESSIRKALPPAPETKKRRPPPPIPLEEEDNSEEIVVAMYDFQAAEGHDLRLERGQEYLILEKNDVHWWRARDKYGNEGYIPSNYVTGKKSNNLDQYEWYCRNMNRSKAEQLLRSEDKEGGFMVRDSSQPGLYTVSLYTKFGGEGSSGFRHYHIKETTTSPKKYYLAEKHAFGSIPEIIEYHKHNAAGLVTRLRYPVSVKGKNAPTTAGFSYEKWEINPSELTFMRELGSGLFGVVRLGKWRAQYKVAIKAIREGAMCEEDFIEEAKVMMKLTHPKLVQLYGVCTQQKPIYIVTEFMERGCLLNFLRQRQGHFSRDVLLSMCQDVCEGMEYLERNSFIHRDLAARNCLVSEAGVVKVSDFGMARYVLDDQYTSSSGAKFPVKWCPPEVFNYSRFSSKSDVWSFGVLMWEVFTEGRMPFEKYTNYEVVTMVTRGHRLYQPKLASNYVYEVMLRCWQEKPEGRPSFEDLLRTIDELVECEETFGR
The experiment in a line: Inhibition of a panel of kinases, in vitro HotSpot kinase assay: TEC. To be noted: for IC50: 1 μM ATP; for TEC* IC50 relative to Btk IC50 value: fold relative to Btk IC50 value. The procedure:
(§1) The degree of inhibition of a panel of kinases is determined using the in vitro HotSpot kinase assay (purified enzymes, ^33P-ATP, an appropriate substrate and 1 μM ATP).

Assay [2] deals with SRC (Homo sapiens, UniProt P12931). Put plainly: Inhibition of a panel of kinases, in vitro HotSpot kinase assay: SRC. To be noted: for IC50: 1 μM ATP; for SRC* IC50 relative to Btk IC50 value: fold relative to Btk IC50 value. The procedure: as §1
The target in assay [3] is T2, JAK3 (Homo sapiens, UniProt P52333).
T2 sequence (P52333 1-1124): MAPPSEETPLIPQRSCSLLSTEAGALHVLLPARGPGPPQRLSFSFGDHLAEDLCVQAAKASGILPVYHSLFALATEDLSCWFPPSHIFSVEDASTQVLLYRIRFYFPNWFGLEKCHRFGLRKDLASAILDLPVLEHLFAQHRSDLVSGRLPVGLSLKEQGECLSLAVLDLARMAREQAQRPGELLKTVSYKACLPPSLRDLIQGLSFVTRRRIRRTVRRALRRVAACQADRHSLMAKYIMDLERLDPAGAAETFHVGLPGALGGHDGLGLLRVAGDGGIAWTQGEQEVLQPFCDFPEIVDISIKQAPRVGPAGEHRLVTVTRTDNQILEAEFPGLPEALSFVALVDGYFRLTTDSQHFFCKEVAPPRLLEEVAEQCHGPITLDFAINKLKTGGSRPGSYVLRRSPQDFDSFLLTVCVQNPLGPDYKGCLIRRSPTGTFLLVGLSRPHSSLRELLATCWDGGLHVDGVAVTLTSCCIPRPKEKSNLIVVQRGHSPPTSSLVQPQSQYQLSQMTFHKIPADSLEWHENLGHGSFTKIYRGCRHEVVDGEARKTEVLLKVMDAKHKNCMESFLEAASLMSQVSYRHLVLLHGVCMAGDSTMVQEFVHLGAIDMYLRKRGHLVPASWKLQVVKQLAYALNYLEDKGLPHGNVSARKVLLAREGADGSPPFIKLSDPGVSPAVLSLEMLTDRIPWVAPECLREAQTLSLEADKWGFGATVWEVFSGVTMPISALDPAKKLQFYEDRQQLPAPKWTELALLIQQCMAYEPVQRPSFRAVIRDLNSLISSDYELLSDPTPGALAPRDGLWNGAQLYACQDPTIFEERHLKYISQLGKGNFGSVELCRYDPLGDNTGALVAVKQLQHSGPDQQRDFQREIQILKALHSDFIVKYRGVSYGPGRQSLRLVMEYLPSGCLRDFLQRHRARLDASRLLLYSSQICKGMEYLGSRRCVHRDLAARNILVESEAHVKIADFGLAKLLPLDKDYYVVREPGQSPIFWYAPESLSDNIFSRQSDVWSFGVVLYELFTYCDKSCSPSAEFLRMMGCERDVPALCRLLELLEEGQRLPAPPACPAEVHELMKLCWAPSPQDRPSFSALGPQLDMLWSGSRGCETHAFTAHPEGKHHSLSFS
Put plainly: Inhibition of a panel of kinases, in vitro HotSpot kinase assay: JAK3. Particulars: for IC50: 1 μM ATP, read-out: IC50 JAK3; for JAK3* IC50 relative to Btk IC50 value: fold relative to Btk IC50 value.

The text below walks through data of patent publication US20210070748A1, “INHIBITORS OF BRUTONS TYROSINE KINASE” (Pharmacyclics LLC, priority 2015, published 2021).

Each structure is given as a SMILES string. Like-named read-outs stand apart in the source and are kept apart here.

Sequence of SRC (P12931 whole entry): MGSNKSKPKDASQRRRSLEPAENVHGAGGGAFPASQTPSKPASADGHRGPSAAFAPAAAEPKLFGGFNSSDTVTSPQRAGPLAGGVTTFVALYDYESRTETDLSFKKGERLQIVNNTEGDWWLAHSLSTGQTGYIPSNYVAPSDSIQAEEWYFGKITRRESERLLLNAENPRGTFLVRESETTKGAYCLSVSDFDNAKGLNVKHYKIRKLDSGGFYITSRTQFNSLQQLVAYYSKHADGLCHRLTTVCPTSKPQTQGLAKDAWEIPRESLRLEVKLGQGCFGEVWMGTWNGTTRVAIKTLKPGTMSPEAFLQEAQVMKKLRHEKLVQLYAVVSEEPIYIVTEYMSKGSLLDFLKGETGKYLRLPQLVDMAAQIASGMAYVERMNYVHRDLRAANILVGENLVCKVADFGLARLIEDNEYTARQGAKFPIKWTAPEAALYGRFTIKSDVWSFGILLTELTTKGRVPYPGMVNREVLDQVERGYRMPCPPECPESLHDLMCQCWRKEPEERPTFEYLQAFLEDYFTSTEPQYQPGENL

As usually defined, the IC50 is the concentration that gives 50% inhibition. For `CN1CCN(c2ccc(Nc3nc(N4CCC[C@@H](n5ccc6cc(C7CC7)ccc6c5=O)C4)cnc3C(N)=O)cc2)CC1` [Example A-99, 5-[(3R)-3-(6-cyclo-propyl-1-oxo-1,2-dihydroisoquinolin-2-yl)piperidin-1-yl]-3-{[4-(4-methylpiperazin-1-yl)phenyl]amino}pyrazine-2-carboxamide], the IC50 lay within 10 to 100 nM in assay [1] (Table 13, A compounds); 100 to 1000 nM in assay [2] (Table 13, A compounds); 1000 to 10000 nM in assay [3] (Table 13, A compounds).
The corresponding values for `Cc1nn(C)cc1Nc1nc(N2CCC[C@@H](NC(=O)c3ccc(C4CC4)cc3)[C@H]2C)cnc1C(N)=O` [Example A-192, 5-((2R,3R)-3-(4-cyclopropylbenzamido)-2-methylpiperidin-1-yl)-3-(1,3-dimethyl-1H-pyrazol-4-ylamino)pyrazine-2-carboxamide] are 1000 to 10000 nM, > 10000 nM and > 10000 nM.
`C=CC(=O)N1CC[C@@H](N(C)c2cnc(C(N)=O)c(Nc3ccc(C4CCN(C5CCCC5)CC4)cc3)n2)C1` [Example C-85, (R)-5-((1-acryloylpyrrolidin-3-yl)(methyl)amino)-3-(4-(1-cyclopentylpiperidin-4-yl)phenylamino) pyrazine-2-carboxamide]: the IC50 in assay [1] (Table 15, C compounds) was ≤ 10 nM; in assay [2] (Table 15, C compounds), 10 to 100 nM; in assay [3] (Table 15, C compounds), < 10 nM.
Turning to `Cc1c(Nc2nc(N3CCC[C@@H](NC(=O)c4ccc(C5CC5)cc4)[C@H]3C)cnc2C(N)=O)cnn1C` [Example A-191, 5-((2R,3)R-3-(4-cyclopropylbenzamido)-2-methylpiperidin-1-yl)-3-(1,5-dimethyl-1H-pyrazol-4-ylamino)pyrazine-2-carboxamide], the half-maximal inhibitory concentration (IC50) in assay [1] (Table 13, A compounds) was 1000 to 10000 nM; in assay [2] (Table 13, A compounds), 1000 to 10000 nM; in assay [3] (Table 13, A compounds), > 10000 nM.
For the compound `C=CC(=O)N1CCC[C@@H](Nc2cnc(C(N)=O)c(Nc3ccc(C4CCN(C5CCCC5)CC4)cc3)n2)C1` [Example C-84, (R)-5-(1-acryloylpiperidin-3-ylamino)-3-(4-(1-cyclopentylpiperidin-4-yl)phenylamino)pyrazine-2-carboxamide], the IC50 in assay [1] (Table 15, C compounds) was ≤ 10 nM; in assay [2] (Table 15, C compounds) it was 10 to 100 nM; in assay [3] (Table 15, C compounds), < 10 nM.
In the case of `C=CC(=O)N1CC[C@@H](N(C)c2nnc(C(N)=O)c(Nc3ccc(C(C)C)cc3)n2)C1` [Example C-41, (R)-3-((1-acryloylpyrrolidin-3-yl)(methyl)amino)-5-(4-isopropylphenylamino)-1,2,4-triazine-6-carboxamide], the IC50 in assay [1] (Table 15, C compounds) is ≤ 10 nM; in assay [2] (Table 15, C compounds), 10 to 100 nM; in assay [3] (Table 15, C compounds), < 10 nM.
Consider `C[C@@H]1[C@H](NC(=O)c2ccc(C3CC3)cc2)CCCN1c1cnc(C(N)=O)c(Nc2cnn(C3CC3)c2)n1` [Example A-205, 3-[(1-cyclopropyl-1H-pyrazol-4-yl)amino]-5-[(2R,3R)-3-(4-cyclopropylbenzamido)-2-methylpiperidin-1-yl]pyrazine-2-carboxamide], for which the “TEC* IC50 relative to Btk IC50 value” in assay [1] is given as 3x. Besides, in assay [2], the “SRC* IC50 relative to Btk IC50 value” is 40x. Further, the “JAK3* IC50 relative to Btk IC50 value” in assay [3] came out at 4032x.
The corresponding values for `C[C@@H]1[C@H](NC(=O)c2ccc(C(C)(C)O)cc2)CCCN1c1cnc(C(N)=O)c(Nc2cnn(C)c2)n1` [Example A-200, 5-((2R,3R)-3-(4-(2-hydroxypropan-2-yl)benzamido)-2-methyl-piperidin-1-yl)-3-(1-methyl-1H-pyrazol-4-yl-amino)pyrazine-2-carboxamide] are 3x, 40x and 411x.
With `C=CC(=O)N1CCC[C@@H](Nc2nnc(C(N)=O)c(Nc3ccc(C(C)(C)C)cc3)n2)C1` [Example C-40, (R)-3-(1-acryloylpiperidin-3-ylamino)-5-(4-tert-butylphenylamino)-1,2,4-triazine-6-carboxamide], the IC50 in assay [1] (Table 15, C compounds) is ≤ 10 nM; in assay [3] (Table 15, C compounds) it was < 10 nM.
Turning to `C[C@@H]1[C@H](NC(=O)c2cc3c(n2C)CC(C)(C)C3)CCCN1c1cnc(C(N)=O)c(Nc2cnn(C)c2)n1` [Example A-193, N-((2R,3R)-1-(5-carbamoyl-6-(1-methyl-1H-pyrazol-4-ylamino)pyrazin-2-yl)-2-methylpiperidin-3-yl)-1,5,5-trimethyl-1,4,5,6-tetrahydrocyclo-penta[b]pyrrole-2-carboxamide], the IC50 in assay [1] (Table 13, A compounds) is 10 to 100 nM; in assay [2] (Table 13, A compounds), 100 to 1000 nM; in assay [3] (Table 13, A compounds), 100 to 1000 nM.
For the compound `C=CC(=O)N1CCC[C@@H](N(C)c2cnc(C(N)=O)c(Nc3ccc(C4(C)CCN(C5CCCC5)CC4)cc3)n2)C1` [Example C-44, (R)-5-((1-acryloylpiperidin-3-yl)(methyl)amino)-3-(4-(1-cyclopentyl-4-methylpiperidin-4-yl)phenylamino) pyrazine-2-carboxamide], the IC50 is ≤ 10 nM in assay [1] (Table 15, C compounds); ≤ 10 nM in assay [2] (Table 15, C compounds); < 10 nM in assay [3] (Table 15, C compounds).
Turning to `C[C@@H]1[C@H](NC(=O)c2ccc(C3CC3)cc2)CCCN1c1nnc(C(N)=O)c(Nc2cnn(C)c2)n1` [Example A-201, 3-[(2R,3R)-3-(4-cyclopropylbenzamido)-2-methylpiperidin-1-yl]-5-[(1-methyl-1H-pyrazol-4-yl)amino]-1,2,4-triazine-6-carboxamide], the “TEC* IC50 relative to Btk IC50 value” in assay [1] stood at 8x. For the same compound, in assay [2], the “SRC* IC50 relative to Btk IC50 value” is given as 47x. In addition, the “JAK3* IC50 relative to Btk IC50 value” in assay [3] stood at 1102x.
As for `C=CC(=O)N1CCC[C@@H](Nc2nnc(C(N)=O)c(Nc3cc(C)ns3)n2)C1` [Example C-56, (R)-3-(1-acryloylpiperidin-3-ylamino)-5-(3-methylisothiazol-5-ylamino)-1,2,4-triazine-6-carboxamide], the IC50 was ≤ 10 nM in assay [1] (Table 15, C compounds); 10 to 100 nM in assay [2] (Table 15, C compounds); < 10 nM in assay [3] (Table 15, C compounds).
As to `Cn1cc(Nc2nc(N3CCC[C@@H](NC(=O)c4ccc(C5CC5)cc4)C3)nnc2C(N)=O)cn1` [Example A-202, 3-[(3R)-3-(4-cyclopropylbenzamido)piper-idin-1-yl]-5-[(1-methyl-1H-pyrazol-4-yl)amino]-1,2,4-triazine-6-carboxamide], the “TEC* IC50 relative to Btk IC50 value” in assay [1] came to 5x. The “SRC* IC50 relative to Btk IC50 value” in assay [2] came to 159x. Besides, the “JAK3* IC50 relative to Btk IC50 value” in assay [3] is given as 631x.
Regarding `C[C@@H]1[C@H](NC(=O)c2ccc(C3COC3)cc2)CCCN1c1cnc(C(N)=O)c(Nc2cnn(C)c2)n1` [Example A-206, 3-(1-methyl-1H-pyrazol-4-ylamino)-5-((2R,3R)-2-methyl-3-(4-(oxetan-3-yl)benzamido)piperidin-1-yl)pyrazine-2-carboxamide], in assay [1], the “TEC* IC50 relative to Btk IC50 value” came out at 1x. In addition, in assay [2], the “SRC* IC50 relative to Btk IC50 value” is 33x. Moreover, the “JAK3* IC50 relative to Btk IC50 value” in assay [3] turned out to be 341x.
With `C=CC(=O)N1CCC[C@@H](N(C)c2cnc(C(N)=O)c(Nc3ccc(C(C)C)cc3)n2)C1` [Example C-42, (R)-5-((1-acryloylpiperidin-3-yl)(methyl)amino)-3-(4-isopropylphenylamino) pyrazine-2-carboxamide], the IC50 in assay [1] (Table 15, C compounds) was ≤ 10 nM; in assay [2] (Table 15, C compounds), 100 to 1000 nM; in assay [3] (Table 15, C compounds), 10 to 100 nM.
